The test has as its system bivalve mollusks. Nature of the test: Water screening with bivalve mollusks: shell gape and Degree of Alarm (DOA) on toxicant exposure. It counts as in vivo. How it is done:
Further calibration of the system is performed after one or more mollusk chambers are properly installed. The digital circuitry or computer 39 then monitors the gape of the mollusk during approximately the first three days after installation. From the gape values derived during this period, the computer derives a natural maximum gape value for the individual mollusk. Subsequent calculations based on output from the mollusk chamber 15 are based on the percentage of gape, i.e., the percentage of the maximum gape output value that the presently detected gape output value represents.
When the system 3 contains a number of mollusk chambers 15, the individual mollusk percentage gape data for all of the mollusks of the system is totaled, and the average percentage gape value calculated periodically per sampling interval by computer 38. This mean data value Gi is the variable used as the mollusk output data for determining if toxicants are present in the water being screened.
In the present specification, Gi means the current average mollusk gape data, Gi−i means the most recent earlier mollusk output value, Gi−2 the next earlier mollusk output variable, etc. The oldest of the gape values is Gi−n+1. Preferably, the set of data values Gi−n+1 to Gi are stored in a FIFO (first-in, first-out) stack data structure in the computer doing the analysis. The stack acts as a shift register, shifting earlier data values as the new data value Gi is acquired. Preferably the value of n is 30, and the data values G are acquired every half-second.
According to an aspect of the invention, the variance over time of the gape values is one of the best statistical indicators of the pumping of the mollusk. By the term variance, what is meant is a determination of the variability of the gape values from a mean value, which may be determined or expressed using a variety of functions. Particularly preferred, however, is the classical calculation of variance as:
In a basic method for toxicant detection, DOA is calculated continuously using the formula DOA=(V·|R|)/M wherein V is the mean variance in gape over a recent period of time, preferably 30 seconds, R is the mean regression of the gape over the period (regression herein meaning the slope of the best-fit line through the data values of the time period). M may be the traveling mean as defined above, or may be the mean gape taken over another longer period, preferably about one hour.
An implementation of this method is shown by the graphs of FIGS. 7 to 10. Water being screened by a system as described previously was loaded with sulphuric acid, resulting in a drop in pH as shown in the graph of FIG. 7.
When the variance is below this threshold value, a first, less sensitive function of the gape data values is used to calculate the DOA value. Such a function might be a linear calculation such as DOA=(1−Gi)*10 which would yield a DOA value between 0 and 10, with 10 corresponding to the mollusk completely closing its shell and strongly indicating presence of toxicant.
When the variance value is greater than or equal to the threshold value, the DOA value may be calculated by a different function which amplifies the calculation from the closing of the shell during the period of high variance. Particularly preferred is a more sensitive high-variance function: DOA=f(Gi)+V/K
An implementation of such a DOA method using a Logistic calculation, with a variance factor added for variances over 50, is illustrated by the graphs of FIGS. 12 to 16.
In this example, a system as in Example 3 was used, only the toxicant introduced was copper (as aqueous CuSO4), as shown in FIG. 17.

As for `[Cl-].[Na+]` [chloride, NaCl], for the setting “chloride, Logistic calculation with variance factor for variances over 50, at 0.5 hours, chloride concentration still relatively low, FIG. 16”, the DOA output result is “greater than 5”. In addition, the “raw gape data, decreasing over time” value (gradually increasing concentration of chloride (aqueous NaCl), FIG. 13) was “less than 40 % of normal maximum gape”.

For `O=S(=O)(O)O` [sulphuric acid], for the setting “sulphuric acid, DOA=(V·|R|)/M, appears before 200 minutes, FIG. 10”, the “DOA (Degree of Alarm) values, spike” value is “greater than 100”. Besides, the “percentage gape at the variance spike” value (sulphuric acid, variance spikes shortly before 200 minutes, FIG. 9) is recorded as no more than 40%. The “average percentage gape of the mollusks” value (water loaded with sulphuric acid (pH drop), shortly after 200 minutes, FIG. 8) is reported as “less than 10 % of the normal maximum”.

As to `O=S(=O)([O-])[O-].[Cu+2]` [copper, CuSO4], the “gape when DOA exceeded 8” value (copper (aqueous CuSO4), between 0.5 and 1.0 hours) was 50%. The DOA values result (copper (aqueous CuSO4), system as in Example 3, between 0.5 and 1.0 hours, copper concentration still relatively low, FIG. 21) was “exceed 8 out of a possible 10”.

The record behind these values is patent US7330794B2, “Water monitoring system using bivalve mollusks” (Aqueous Solutions, Inc., priority 2000, dated 2008).
